According to patent US20240108740A1, “THERAPEUTIC COMPOSITIONS INCLUDING SPN10 AND USES THEREOF” (Stealth BioTherapeutics Inc., priority 2022, published 2024):
Residues, ends and D or L forms follow the SMILES beside them.

Key:
[1] = system: Isolated guinea pig hearts; experiment: Example 6: isolated hearts, 18 hours cold ischemic storage and warm reperfusion
Procedure: Isolated guinea pig hearts will be perfused with St. Thomas solution alone or St. Thomas solution containing peptide conjugates (1-100 nM), aromatic-cationic peptides (e.g., an equivalent molar dose of aromatic-cationic peptide based on the concentration of the aromatic-cationic peptide administered in the peptide conjugate treatment group), SPN10(s) (e.g., an equivalent molar dose of SPN10 based on the concentration of SPN10 administered in the peptide conjugate treatment group), or SPN10(s) in combination with aromatic-cationic peptides (e.g., an equivalent molar dose of SPN10 based on the concentration of SPN10 administered in the peptide conjugate treatment group and an equivalent molar dose of aromatic-cationic peptide based on the concentration of aromatic-cationic peptide administered in the peptide conjugate treatment group) for 3 minutes and then stored in the same solution at 4° C. for 18 hours. After ischemic storage, hearts will be re-perfused with 34° C. Krebs-Henseleit solution for 90 min. Hearts freshly isolated from guinea pigs will be used as controls.
The hearts will be fixed in paraffin and sliced for immunostaining with an anti-CD36 rabbit polyclonal antibody. It is anticipated that the sections from a representative heart stored in St. Thomas solution for 18 hours at 4° C. will show increased CD36 staining compared to freshly isolated controls.
It is also anticipated that there will be a decrease in lipid peroxidation in the hearts treated with peptide conjugates, aromatic-cationic peptides, or SPN10(s) (with or without aromatic-cationic peptides). […]

[2] = system: neuronal N2A cells; experiment: Example 21: intracellular ROS and cell survival after t-BHP; assay type: cell-based; conditions: t-BHP 0.5 or 1 mM, 40 min; then 4 hours
Procedure: Cells will be washed twice and incubated in medium alone or medium containing varying concentrations of peptide conjugates, aromatic-cationic peptides or SPN10(s) with or without aromatic-cationic peptides for 4 hours. Intracellular ROS will be measured using carboxy-H2DCFDA (Molecular Probes, Portland, OR, U.S.A.). Cell death will be measured using an MTS cell proliferation assay (Promega, Madison, WI).

[3] = system: Hairless mice; experiment: Example 50: sunburn by excessive UV radiation; assay type: in vivo, mouse; conditions: intravenously twice per day for seven days
Description: Hairless mice, with skin characteristics similar to humans, will be exposed to excessive UV radiation over the course of a week. […] Parameters measured will include wound contraction, re-epithelialization distance, cellularity, and collagen organization. Ki67 proliferation antigen will be assessed, as well as TUNEL and caspase-3 activation. Blood flow will be measured by […] mapping.

## N=C(N)NCCC[C@H](NC(=O)[C@@H](N)Cc1c[nH]c2ccccc12)C(=O)N[C@@H](Cc1c[nH]c2ccccc12)C(=O)N[C@@H](CCCCN)C(N)=O [SPN10, H-L-Trp-L-Arg-L-Trp-L-Lys-NH2] (H-WRWK-NH2)
[1]
  coronary blood flow after cold ischemic storage and warm reperfusion: significant improvement of coronary blood flow
[1]; 18 hours cold ischemia, 90 minutes reperfusion
  HNE staining in stored hearts: reduced
[1]; St. Thomas solution, 18 hours, 4° C.
  CD36 staining in stored hearts: significantly reduced
[2]
  cell survival (MTS): increase cell survival
  intracellular ROS (carboxy-H2DCFDA): dose-dependently reduce intracellular ROS
[3]
  wound healing and progression of sunburn injuries: accelerate wound healing and attenuate the progression of sunburn injuries
